{
  "source": "patent US11123337B2",
  "about": "“4-methylsulfonyl-substituted piperidine urea compounds” (MYOKARDIA, INC., priority 2015, dated 2021)",
  "data": [
    {"biological_target": "bovine cardiac myosin (Bos taurus, UniProt Q9BE39)", "sequence (Q9BE39 whole entry)": "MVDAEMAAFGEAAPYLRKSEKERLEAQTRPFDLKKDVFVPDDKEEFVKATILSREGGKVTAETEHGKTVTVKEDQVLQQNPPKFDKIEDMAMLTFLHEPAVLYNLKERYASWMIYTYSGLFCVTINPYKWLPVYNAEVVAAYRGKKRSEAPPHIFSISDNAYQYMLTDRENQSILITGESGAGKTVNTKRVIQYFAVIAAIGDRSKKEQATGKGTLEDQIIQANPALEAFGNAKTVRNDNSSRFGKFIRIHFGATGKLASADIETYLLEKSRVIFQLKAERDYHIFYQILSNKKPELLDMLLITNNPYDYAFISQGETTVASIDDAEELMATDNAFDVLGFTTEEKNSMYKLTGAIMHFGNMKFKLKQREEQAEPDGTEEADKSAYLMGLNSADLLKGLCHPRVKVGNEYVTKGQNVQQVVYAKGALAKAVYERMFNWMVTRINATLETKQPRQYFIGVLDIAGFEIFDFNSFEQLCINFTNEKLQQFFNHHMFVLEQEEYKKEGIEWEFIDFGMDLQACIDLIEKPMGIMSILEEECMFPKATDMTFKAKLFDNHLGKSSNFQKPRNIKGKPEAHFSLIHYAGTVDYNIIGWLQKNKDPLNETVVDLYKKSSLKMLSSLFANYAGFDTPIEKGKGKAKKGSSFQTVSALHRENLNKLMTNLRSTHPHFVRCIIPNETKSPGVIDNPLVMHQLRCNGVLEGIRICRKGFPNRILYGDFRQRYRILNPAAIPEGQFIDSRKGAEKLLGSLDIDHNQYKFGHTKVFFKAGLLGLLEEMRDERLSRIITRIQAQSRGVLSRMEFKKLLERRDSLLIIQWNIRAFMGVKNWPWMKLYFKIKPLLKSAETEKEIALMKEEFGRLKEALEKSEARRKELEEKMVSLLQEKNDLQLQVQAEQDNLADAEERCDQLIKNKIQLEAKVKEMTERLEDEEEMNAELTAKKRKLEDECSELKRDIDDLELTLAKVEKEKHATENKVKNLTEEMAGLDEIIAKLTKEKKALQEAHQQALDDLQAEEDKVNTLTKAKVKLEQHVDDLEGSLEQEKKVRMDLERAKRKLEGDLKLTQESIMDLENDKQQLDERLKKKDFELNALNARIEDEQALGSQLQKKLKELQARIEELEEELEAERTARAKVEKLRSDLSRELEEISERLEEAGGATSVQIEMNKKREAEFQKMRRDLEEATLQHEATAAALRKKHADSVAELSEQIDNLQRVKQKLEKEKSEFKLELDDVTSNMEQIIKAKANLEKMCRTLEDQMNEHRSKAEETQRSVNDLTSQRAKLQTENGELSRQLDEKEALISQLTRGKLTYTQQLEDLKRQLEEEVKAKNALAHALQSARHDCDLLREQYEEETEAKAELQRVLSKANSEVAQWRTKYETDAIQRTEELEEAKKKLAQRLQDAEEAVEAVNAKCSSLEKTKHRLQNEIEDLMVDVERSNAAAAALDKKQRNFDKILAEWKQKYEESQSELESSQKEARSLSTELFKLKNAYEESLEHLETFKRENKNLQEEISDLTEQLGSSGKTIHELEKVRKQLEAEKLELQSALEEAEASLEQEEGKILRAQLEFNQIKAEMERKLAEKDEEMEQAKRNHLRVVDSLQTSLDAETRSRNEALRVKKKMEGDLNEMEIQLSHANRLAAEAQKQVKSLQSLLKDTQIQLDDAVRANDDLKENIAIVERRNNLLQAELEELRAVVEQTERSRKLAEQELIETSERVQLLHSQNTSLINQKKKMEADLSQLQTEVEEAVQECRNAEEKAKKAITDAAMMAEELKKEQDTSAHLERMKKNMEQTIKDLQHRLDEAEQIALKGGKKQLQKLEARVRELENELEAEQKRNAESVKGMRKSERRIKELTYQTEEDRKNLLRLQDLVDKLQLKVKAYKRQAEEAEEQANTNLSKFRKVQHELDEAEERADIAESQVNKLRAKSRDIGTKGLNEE", "sequence (P85100 whole entry partner)": "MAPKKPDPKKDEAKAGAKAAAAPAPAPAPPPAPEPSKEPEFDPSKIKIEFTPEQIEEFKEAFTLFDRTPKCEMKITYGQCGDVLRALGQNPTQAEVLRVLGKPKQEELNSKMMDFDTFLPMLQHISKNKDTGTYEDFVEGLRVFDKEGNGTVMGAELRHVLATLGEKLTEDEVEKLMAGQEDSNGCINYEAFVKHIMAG", "sequence (Q3SZE5 whole entry partner)": "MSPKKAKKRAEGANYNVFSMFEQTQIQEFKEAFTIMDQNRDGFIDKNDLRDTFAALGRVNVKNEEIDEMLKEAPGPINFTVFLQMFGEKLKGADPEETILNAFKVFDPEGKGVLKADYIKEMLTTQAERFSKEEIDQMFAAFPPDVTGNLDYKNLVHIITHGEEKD", "test": "Myosin activation assay (PK/LDH-coupled ATPase, bovine cardiac myofibrils)", "type": "biochemical", "conditions": "AC20 = concentration at which total response is increased by twenty percent", "summary_of_the_method": "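Values are the concentrations raising the ATPase rate by 20% or 50% over DMSO, from 10-point dose responses fitted with four parameters. Rate is NADH loss at 340 nm via PK/LDH coupling, read 15 min at room temperature, in pH 6.8 PIPES with 50 μM ATP. Bovine cardiac myofibrils were held at pCa ~6 or pCa 10.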", "values": [
      {"smiles": "Cn1cnc(S(=O)(=O)C(C)(C)C2CCN(C(=O)Nc3ccnnc3)CC2)c1", "note": "[Compound 172, 4-(2-((1-methyl-1H-imidazol-4-yl)sulfonyl)propan-2-yl)-N-(pyridazin-4-yl)piperidine-1-carboxamide]", "Myosin Activation (AC20)": "+ (+ represents myosin activation value AC20 > 5 μM)"},
      {"smiles": "O=C(Nc1ccnnc1)N1CCC(C(F)(F)S(=O)(=O)c2ccccc2CO)CC1", "note": "[Compound 25, 4-(Difluoro((2-(hydroxymethyl)phenyl)sulfonyl)methyl)-N-(pyridazin-4-yl)piperidine-1-carboxamide]", "Myosin Activation (AC20)": "++ (++ represents myosin activation value AC20 from 2 μM-5 μM)"},
      {"smiles": "Cn1cc(S(=O)(=O)C(C)(C)C2CCN(C(=O)Nc3ccnnc3)CC2)cn1", "note": "[Compound 199, 4-(2-((1-methyl-1H-pyrazol-4-yl)sulfonyl)propan-2-yl)-N-(pyridazin-4-yl)piperidine-1-carboxamide]", "Myosin Activation (AC20)": "+ (+ represents myosin activation value AC20 > 5 μM)"},
      {"smiles": "C[C@](F)(C1CCN(C(=O)Nc2ccnc(C#N)c2)CC1)S(=O)(=O)c1cccc(F)c1", "note": "[Compound 293, (R)-N-(2-cyanopyridin-4-yl)-4-(1-fluoro-1-((3-fluorophenyl)sulfonyl)ethyl)piperidine-1-carboxamide]", "Myosin Activation (AC20)": "+ (+ represents myosin activation value AC20 > 5 μM)"},
      {"smiles": "C[C@H](O)c1cc(NC(=O)N2CCC([C@@](C)(F)S(=O)(=O)c3cn(C)nc3C(F)F)CC2)ccn1", "note": "[Compound 29, 4-((S)-1-((3-(Difluoromethyl)-1-methyl-1H-pyrazol-4-yl)sulfonyl)-1-fluoroethyl)-N-(2-((S)-1-hydroxyethyl)pyridin-4-yl)piperidine-1-carboxamide]", "Myosin Activation (AC20)": "+ (+ represents myosin activation value AC20 > 5 μM)"},
      {"smiles": "COc1ccc(NC(=O)N2CCC(C(C)(C)S(=O)(=O)c3cccc(F)c3)CC2)cn1", "note": "[Compound 161, 4-(2-((3-fluorophenyl)sulfonyl)propan-2-yl)-N-(6-methoxypyridin-3-yl)piperidine-1-carboxamide]", "Myosin Activation (AC20)": "+ (+ represents myosin activation value AC20 > 5 μM)"},
      {"smiles": "C[C@@H](O)c1cc(NC(=O)N2CCC([C@](C)(F)S(=O)(=O)c3cccc(F)c3)CC2)ccn1", "note": "[Compound 303, 4-((R)-1-fluoro-1-((3-fluorophenyl)sulfonyl)ethyl)-N-(2-((R)-1-hydroxyethyl)pyridin-4-yl)piperidine-1-carboxamide]", "Myosin Activation (AC20)": "+ (+ represents myosin activation value AC20 > 5 μM)"},
      {"smiles": "Cn1nccc1-c1ccc(S(=O)(=O)C(F)(F)C2CCN(C(=O)Nc3ccnnc3)CC2)cc1", "note": "[Compound 58, 4-(difluoro((4-(1-methyl-1H-pyrazol-5-yl)phenyl)sulfonyl)methyl)-N-(pyridazin-4-yl)piperidine-1-carboxamide]", "Myosin Activation (AC20)": "+ (+ represents myosin activation value AC20 > 5 μM)"},
      {"smiles": "CC(C)(C1CCN(C(=O)Nc2cnccn2)CC1)S(=O)(=O)c1cccc(F)c1", "note": "[Compound 131, 4-(2-((3-fluorophenyl)sulfonyl)propan-2-yl)-N-(pyrazin-2-yl)piperidine-1-carboxamide]", "Myosin Activation (AC20)": "+ (+ represents myosin activation value AC20 > 5 μM)"},
      {"smiles": "Cn1nccc1S(=O)(=O)C(F)(F)C1CCN(C(=O)Nc2ccnnc2)CC1", "note": "[Compound 94, 4-(difluoro((1-methyl-1H-pyrazol-5-yl)sulfonyl)methyl)-N-(pyridazin-4-yl)piperidine-1-carboxamide]", "Myosin Activation (AC20)": "+ (+ represents myosin activation value AC20 > 5 μM)"},
      {"smiles": "Cc1cc(S(=O)(=O)C(C)(C)C2CCN(C(=O)Nc3ccnnc3)CC2)n(C)n1", "note": "[Compound 187, 4-(2-((1,3-dimethyl-1H-pyrazol-5-yl)sulfonyl)propan-2-yl)-N-(pyridazin-4-yl)piperidine-1-carboxamide]", "Myosin Activation (AC20)": "+++ (+++ represents myosin activation value AC20 < 2 μM)"},
      {"smiles": "CC(C)(C1CCN(C(=O)Nc2cccnc2)CC1)S(=O)(=O)c1cccc(F)c1", "note": "[Compound 133, 4-(2-((3-fluorophenyl)sulfonyl)propan-2-yl)-N-(pyridin-3-yl)piperidine-1-carboxamide]", "Myosin Activation (AC20)": "++ (++ represents myosin activation value AC20 from 2 μM-5 μM)"},
      {"smiles": "CC(C)(C1CCN(C(=O)Nc2cnns2)CC1)S(=O)(=O)c1ccc(C#N)cc1", "note": "[Compound 179, 4-(2-((4-cyanophenyl)sulfonyl)propan-2-yl)-N-(1,2,3-thiadiazol-5-yl)piperidine-1-carboxamide]", "Myosin Activation (AC20)": "+++ (+++ represents myosin activation value AC20 < 2 μM)"},
      {"smiles": "CC(C)(C1CCN(C(=O)Nc2cnoc2)CC1)S(=O)(=O)c1cccc(F)c1", "note": "[Compound 158, 4-(2-((3-fluorophenyl)sulfonyl)propan-2-yl)-N-(isoxazol-4-yl)piperidine-1-carboxamide]", "Myosin Activation (AC20)": "+++ (+++ represents myosin activation value AC20 < 2 μM)"},
      {"smiles": "Cn1cc(S(=O)(=O)C(C)(C)C2CCN(C(=O)Nc3cn[nH]c3)CC2)c(C(F)(F)F)n1", "note": "[Compound 110, 4-(2-((1-methyl-3-(trifluoromethyl)-1H-pyrazol-4-yl)sulfonyl)propan-2-yl)-N-(1H-pyrazol-4-yl)piperidine-1-carboxamide]", "Myosin Activation (AC20)": "++ (++ represents myosin activation value AC20 from 2 μM-5 μM)"},
      {"smiles": "Cc1ccc(S(=O)(=O)CC2CCN(C(=O)Nc3ccncc3)CC2)cc1", "note": "[Compound 38, N-(pyridin-4-yl)-4-(tosylmethyl)piperidine-1-carboxamide]", "Myosin Activation (AC20)": "+ (+ represents myosin activation value AC20 > 5 μM)"},
      {"smiles": "[2H]C([2H])([2H])n1cc(S(=O)(=O)[C@@](F)(C2CCN(C(=O)Nc3ccon3)CC2)C([2H])([2H])[2H])c(C(F)F)n1", "note": "[Compound 306, (R)-4-(1-((3-(difluoromethyl)-1-(methyl-d3)-1H-pyrazol-4-yl)sulfonyl)-1-fluoroethyl-2,2,2-d3)-N-(isoxazol-3-yl)piperidine-1-carboxamide]", "Myosin Activation (AC20)": "+++ (+++ represents myosin activation value AC20 < 2 μM)"},
      {"smiles": "CC(F)(C1CCN(C(=O)Nc2ccnnc2)CC1)S(=O)(=O)c1ccc(C(F)(F)F)nc1", "note": "(centres unmarked) [Compound 262, 4-(1-fluoro-1-((6-(trifluoromethyl)pyridin-3-yl)sulfonyl)ethyl)-N-(pyridazin-4-yl)piperidine-1-carboxamide]", "Myosin Activation (AC20)": "+++ (+++ represents myosin activation value AC20 < 2 μM)"},
      {"smiles": "Cn1nc(C(F)(F)F)cc1S(=O)(=O)[C@@](C)(F)C1CCN(C(=O)Nc2ccnc(F)c2)CC1", "note": "[Compound 296, (R)-4-(1-fluoro-1-((1-methyl-3-(trifluoromethyl)-1H-pyrazol-5-yl)sulfonyl)ethyl)-N-(2-fluoropyridin-4-yl)piperidine-1-carboxamide]", "Myosin Activation (AC20)": "+++ (+++ represents myosin activation value AC20 < 2 μM)"},
      {"smiles": "Cn1cc(S(=O)(=O)[C@@](C)(F)C2CCN(C(=O)Nc3cocn3)CC2)c(C(F)F)n1", "note": "[Compound 248, (R)-4-(1-((3-(difluoromethyl)-1-methyl-1H-pyrazol-4-yl)sulfonyl)-1-fluoroethyl)-N-(oxazol-4-yl)piperidine-1-carboxamide]", "Myosin Activation (AC20)": "+ (+ represents myosin activation value AC20 > 5 μM)"},
      {"smiles": "Cn1cc(S(=O)(=O)C(C)(C)C2CCN(C(=O)Nc3ccnnc3)CC2)c(Cl)n1", "note": "[Compound 103, 4-(2-((3-chloro-1-methyl-1H-pyrazol-4-yl)sulfonyl)propan-2-yl)-N-(pyridazin-4-yl)piperidine-1-carboxamide]", "Myosin Activation (AC20)": "++ (++ represents myosin activation value AC20 from 2 μM-5 μM)"},
      {"smiles": "Cn1cc(S(=O)(=O)C(C)(C)C2CCN(C(=O)Nc3nnco3)CC2)c(C(F)F)n1", "note": "[Compound 145, 4-(2-((3-(difluoromethyl)-1-methyl-1H-pyrazol-4-yl)sulfonyl)propan-2-yl)-N-(1,3,4-oxadiazol-2-yl)piperidine-1-carboxamide]", "Myosin Activation (AC20)": "+ (+ represents myosin activation value AC20 > 5 μM)"},
      {"smiles": "CC(F)(C1CCN(C(=O)Nc2ccon2)CC1)S(=O)(=O)c1cccc(C#N)c1", "note": "(centres unmarked) [Compound 282, 4-(1-((3-cyanophenyl)sulfonyl)-1-fluoroethyl)-N-(isoxazol-3-yl)piperidine-1-carboxamide]", "Myosin Activation (AC20)": "++ (++ represents myosin activation value AC20 from 2 μM-5 μM)"},
      {"smiles": "CC(C)(C1CCN(C(=O)Nc2ccc(F)nc2)CC1)S(=O)(=O)c1ccc(C#N)cc1", "note": "[Compound 109, 4-(2-((4-cyanophenyl)sulfonyl)propan-2-yl)-N-(6-fluoropyridin-3-yl)piperidine-1-carboxamide]", "Myosin Activation (AC20)": "+ (+ represents myosin activation value AC20 > 5 μM)"},
      {"smiles": "CC(C)(C1CCN(C(=O)Nc2nccs2)CC1)S(=O)(=O)c1cccc(F)c1", "note": "[Compound 156, 4-(2-((3-fluorophenyl)sulfonyl)propan-2-yl)-N-(thiazol-2-yl)piperidine-1-carboxamide]", "Myosin Activation (AC20)": "+ (+ represents myosin activation value AC20 > 5 μM)"},
      {"smiles": "Cc1ccc(S(=O)(=O)C(F)(F)C2CCN(C(=O)Nc3ccnnc3)CC2)cn1", "note": "[Compound 50, 4-(difluoro((6-methylpyridin-3-yl)sulfonyl)methyl)-N-(pyridazin-4-yl)piperidine-1-carboxamide]", "Myosin Activation (AC20)": "++ (++ represents myosin activation value AC20 from 2 μM-5 μM)"},
      {"smiles": "O=C(Nc1ccnnc1)N1CCC(C2(S(=O)(=O)c3cc(F)cc(F)c3)CCC2)CC1", "note": "[Compound 167, 4-(1-((3,5-difluorophenyl)sulfonyl)cyclobutyl)-N-(pyridazin-4-yl)piperidine-1-carboxamide]", "Myosin Activation (AC20)": "+++ (+++ represents myosin activation value AC20 < 2 μM)"},
      {"smiles": "Cn1cc(S(=O)(=O)C(C)(C)C2CCN(C(=O)Nc3ccncc3)CC2)cn1", "note": "[Compound 198, 4-(2-((1-methyl-1H-pyrazol-4-yl)sulfonyl)propan-2-yl)-N-(pyridin-4-yl)piperidine-1-carboxamide]", "Myosin Activation (AC20)": "+ (+ represents myosin activation value AC20 > 5 μM)"},
      {"smiles": "Cc1ccc(NC(=O)N2CCC(C(F)(F)S(=O)(=O)c3cn(C)nc3C(F)F)CC2)cn1", "note": "[Compound 80, 4-(((3-(difluoromethyl)-1-methyl-1H-pyrazol-4-yl)sulfonyl)difluoromethyl)-N-(6-methylpyridin-3-yl)piperidine-1-carboxamide]", "Myosin Activation (AC20)": "+ (+ represents myosin activation value AC20 > 5 μM)"}
    ]}
  ]
}
